{"source": "patent US9926299B2", "about": "“Inhibitors of bruton's tyrosine kinase” (Centaurus BioPharma Co., Ltd., priority 2012, dated 2018)", "key": {"Ramos cells": {"system": "Ramos cells", "experiment": "BCR-induced calcium flux fluorescence-based assay in Ramos cells", "conditions": "Ramos cells stimulated with goat anti-human IgM antibody; read-out: Ramos Cell Ca Flux IC50", "description": "Calcium flux fluorescence-based assays were performed using Fluo-4 Direct™ Calcium Assay Kits (purchased from Invitrogen) in a FlexStation III (purchased from Molecular Devices) according to manufacturer instructions. In brief, actively growing Romas cells in RPM1-1640 medium (purchased from Invitrogen) supplemented with 10% FBS (purchased from Hyclone) were washed and re-plated in low serum medium at approximately 1×10^5 cells per 45 μL per well in a 96-well plate (purchased from Corning), then added 45 μL of dye (purchased from Invitrogen) and incubated at 37 degree for 1 hour. Compounds to be assayed were dissolved and 3-fold serially diluted in DMSO and then diluted by 100 times in low serum medium. Then 10 μL of the diluted mixture were added to the above 96-well plate (final DMSO concentration was 0.1%) and incubated at 37 degree in 5% CO2 incubator for 0.5 hour. The compound-treated cells were stimulated with a goat anti-human IgM antibody (10 μg/ml; purchased from SouthernBiotech) and read in the FlexStation III using a λEx=494 nM and […] for 90 seconds. The relative fluorescence unit (RFU) and the IC50 were recorded and analyzed using a GraphPad Prism 5 (GraphPad Software)."}, "BTK kinase": {"target": "BTK kinase (Homo sapiens (Human), UniProt Q06187)", "sequence (Q06187 whole entry)": "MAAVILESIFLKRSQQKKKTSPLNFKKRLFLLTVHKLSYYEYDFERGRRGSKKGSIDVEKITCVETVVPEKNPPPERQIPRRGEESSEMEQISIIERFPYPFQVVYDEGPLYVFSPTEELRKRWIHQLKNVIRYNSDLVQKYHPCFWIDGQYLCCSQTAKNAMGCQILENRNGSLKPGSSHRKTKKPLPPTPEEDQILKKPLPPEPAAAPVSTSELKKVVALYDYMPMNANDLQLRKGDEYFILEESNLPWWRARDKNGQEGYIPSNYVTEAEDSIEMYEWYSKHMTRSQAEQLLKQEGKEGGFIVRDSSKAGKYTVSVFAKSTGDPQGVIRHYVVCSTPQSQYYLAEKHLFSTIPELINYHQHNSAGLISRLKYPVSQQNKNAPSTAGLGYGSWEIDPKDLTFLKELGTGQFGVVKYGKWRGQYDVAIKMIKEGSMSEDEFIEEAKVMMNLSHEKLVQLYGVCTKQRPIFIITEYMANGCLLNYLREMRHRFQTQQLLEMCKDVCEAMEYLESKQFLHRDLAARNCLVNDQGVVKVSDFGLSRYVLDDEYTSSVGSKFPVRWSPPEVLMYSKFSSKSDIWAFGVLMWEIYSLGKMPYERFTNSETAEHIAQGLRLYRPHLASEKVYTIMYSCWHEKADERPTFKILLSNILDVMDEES", "experiment": "Btk kinase enzymatic assay (HTRF)", "type": "biochemical", "conditions": "ATP at Km", "description": "Btk kinase activity was determined using a Homogeneous Time-Resolved Fluorescence (HTRF) methodology (Cisbio). […] The mixture was centrifuged and incubated for 5 min. […] For each compound, enzyme activity was measured at various concentrations of compound, and IC50s were obtained by GraFit Software 6.0 (Erithacus Software)."}}, "note": "pIC50: −log10 of the molar value.", "data": [{"smiles": "C#CC(=O)N1CCCC(n2nc(-c3ccc(Oc4ccccc4)cc3)c(C(N)=O)c2N)C1", "note": "(centres unmarked) [Example 26, 5-amino-3-(4-phenoxyphenyl)-1-(1-propioloylpiperidin-3-yl)-1H-pyrazole-4-carboxamide]", "values": [{"measurement": "pIC50", "setting": "Ramos cells", "result": "> 7.00"}, {"measurement": "pIC50", "setting": "BTK kinase", "result": "> 7.00"}]}, {"smiles": "C=CC(=O)N1CC[C@@H](n2nc(-c3ccc(Oc4cccc([N+](=O)[O-])c4)c(C)c3)c(C(N)=O)c2N)C1", "note": "[Example 49, (R)-1-(1-acryloylpyrrolidin-3-yl)-5-amino-3-(3-methyl-4-(3-nitrophenoxy)phenyl)-1H-pyrazole-4-carboxamide]", "values": [{"measurement": "pIC50", "setting": "Ramos cells", "result": "> 7.00"}, {"measurement": "pIC50", "setting": "BTK kinase", "result": "> 7.00"}]}, {"smiles": "C=CC(=O)N1CC[C@H](n2nc(-c3ccc(Oc4ccccc4)cc3)c(C(N)=O)c2N)C1", "note": "[25 (S-isomer)]", "values": [{"measurement": "pIC50", "setting": "Ramos cells", "result": "> 7.00"}, {"measurement": "pIC50", "setting": "BTK kinase", "result": "> 7.00"}]}, {"smiles": "C=CC(=O)N1CCC[C@@H](n2nc(-c3ccc(Oc4ccccc4)cc3)c(C(N)=O)c2NC)C1", "note": "[Example 2, (R)-1-(1-acryloylpiperidin-3-yl)-5-(methylamino)-3-(4-phenoxyphenyl)-1H-pyrazole-4-carboxamide]", "values": [{"measurement": "pIC50", "setting": "Ramos cells", "result": "> 7.00"}, {"measurement": "pIC50", "setting": "BTK kinase", "result": "> 7.00"}]}, {"smiles": "C=CC(=O)N1CCCC(n2nc(-c3ccc(Oc4ccccc4)cc3)c(C(N)=O)c2NCC)C1", "note": "(centres unmarked) [Example 6, 1-(1-acryloylpiperidin-3-yl)-5-(ethylamino)-3-(4-phenoxyphenyl)-1H-pyrazole-4-carboxamide]", "values": [{"measurement": "pIC50", "setting": "Ramos cells", "result": "> 7.00"}, {"measurement": "pIC50", "setting": "BTK kinase", "result": "> 7.00"}]}, {"smiles": "NC(=O)c1c(-c2ccc(Oc3ccccc3)cc2)nn(C2CCCCC2)c1N", "note": "[Example 20, 5-amino-1-cyclohexyl-3-(4-phenoxyphenyl)-1H-pyrazole-4-carboxamide]", "values": [{"measurement": "pIC50", "setting": "Ramos cells", "result": "> 7.00"}, {"measurement": "pIC50", "setting": "BTK kinase", "result": "> 7.00"}]}, {"smiles": "C#CC(=O)N(C)CCn1nc(-c2ccc(Oc3ccccc3)cc2)c(C(N)=O)c1N", "note": "[Example 32, 5-amino-1-(2-(N-methylpropiolamido)ethyl)-3-(4-phenoxyphenyl)-1H-pyrazole-4-carboxamide]", "values": [{"measurement": "pIC50", "setting": "Ramos cells", "result": "> 7.00"}, {"measurement": "pIC50", "setting": "BTK kinase", "result": "> 7.00"}]}, {"smiles": "C=CC(=O)N1CC[C@@H](n2nc(-c3ccc(Oc4ccccc4)cc3)c(C(N)=O)c2N)C1", "note": "[25 (R-isomer)]", "values": [{"measurement": "pIC50", "setting": "Ramos cells", "result": "> 7.00"}, {"measurement": "pIC50", "setting": "BTK kinase", "result": "> 7.00"}]}, {"smiles": "C=CC(=O)N1CC[C@@H](n2nc(-c3ccc(Oc4cc(F)cc(F)c4)cc3)c(C(N)=O)c2N)C1", "note": "[Example 41, (R)-1-(1-acryloylpyrrolidin-3-yl)-5-amino-3-(4-(3,5-difluorophenoxyl)phenyl)-1H-pyrazole-4-carboxamide]", "values": [{"measurement": "pIC50", "setting": "Ramos cells", "result": "> 7.00"}, {"measurement": "pIC50", "setting": "BTK kinase", "result": "> 7.00"}]}, {"smiles": "C=CC(=O)NCCn1nc(-c2ccc(Oc3ccccc3)cc2)c(C(N)=O)c1N", "note": "[Example 31, 1-(2-acrylamidoethyl)-5-amino-3-(4-phenoxyphenyl)-1H-pyrazole-4-carboxamide]", "values": [{"measurement": "pIC50", "setting": "Ramos cells", "result": "> 7.00"}, {"measurement": "pIC50", "setting": "BTK kinase", "result": "> 7.00"}]}, {"smiles": "C=CC(=O)N1CCC[C@H](n2nc(-c3ccc(Oc4ccccc4)cc3)c(C(N)=O)c2N)C1", "note": "[Example 23, (S)-1-(1-acryloylpiperidin-3-yl)-5-amino-3-(4-phenoxyphenyl)-1H-pyrazole-4-carboxamide]", "values": [{"measurement": "pIC50", "setting": "Ramos cells", "result": "> 7.00"}]}, {"smiles": "C=CC(=O)N1CC[C@@H](n2nc(-c3ccc(Oc4ccc(Cl)cc4)cc3)c(C(N)=O)c2N)C1", "note": "[Example 43, (R)-1-(1-acryloylpyrrolidin-3-yl)-5-amino-3-(4-(4-chlorophenoxyl)phenyl)-1H-pyrazole-4-carboxamide]", "values": [{"measurement": "pIC50", "setting": "Ramos cells", "result": "> 7.00"}, {"measurement": "pIC50", "setting": "BTK kinase", "result": "> 7.00"}]}, {"smiles": "CN(C)C/C=C/C(=O)N(C)CCn1nc(-c2ccc(Oc3ccccc3)cc2)c(C(N)=O)c1N", "note": "[Example 35, (E)-5-amino-1-(2-(4-(dimethylamino)-N-methylbut-2-enamido)ethyl)-3-(4-phenoxyphenyl)-1H-pyrazole-4-carboxamide]", "values": [{"measurement": "pIC50", "setting": "Ramos cells", "result": "> 7.00"}, {"measurement": "pIC50", "setting": "BTK kinase", "result": "> 7.00"}]}, {"smiles": "C=CC(=O)N1CC[C@@H](n2nc(-c3ccc(Oc4ccc(OC)cc4)cc3)c(C(N)=O)c2N)C1", "note": "[Example 46, (R)-1-(1-acryloylpyrrolidin-3-yl)-5-amino-3-(4-(4-methoxyphenoxyl)phenyl)-1H-pyrazole-4-carboxamide]", "values": [{"measurement": "pIC50", "setting": "Ramos cells", "result": "> 7.00"}, {"measurement": "pIC50", "setting": "BTK kinase", "result": "> 7.00"}]}, {"smiles": "C=CC(=O)N1CCCC(n2nc(-c3ccc(Oc4ccccc4)cc3)c(C(N)=O)c2NCCN2CCOCC2)C1", "note": "(centres unmarked) [Example 13, 1-(1-acryloylpiperidin-3-yl)-5-(2-morpholinoethylamino)-3-(4-phenoxy-phenyl)-1H-pyrazole-4-carboxamide]", "values": [{"measurement": "pIC50", "setting": "Ramos cells", "result": "> 7.00"}, {"measurement": "pIC50", "setting": "BTK kinase", "result": "> 7.00"}]}, {"smiles": "C=CC(=O)N1CCC(n2nc(-c3ccc(Oc4ccccc4)cc3)c(C(N)=O)c2N)CC1", "note": "[Example 24, 1-(1-acryloylpiperidin-4-yl)-5-amino-3-(4-phenoxyphenyl)-1H-pyrazole-4-carboxamide]", "values": [{"measurement": "pIC50", "setting": "Ramos cells", "result": "> 7.00"}, {"measurement": "pIC50", "setting": "BTK kinase", "result": "> 7.00"}]}, {"smiles": "C=CC(=O)N1CCCC(n2nc(-c3ccc(Oc4ccccc4)cc3)c(C(N)=O)c2N)C1", "note": "(centres unmarked) [Example 22, 1-(1-acryloylpiperidin-3-yl)-5-amino-3-(4-phenoxyphenyl)-1H-pyrazole-4-carboxamide]", "values": [{"measurement": "pIC50", "setting": "Ramos cells", "result": "> 7.00"}]}, {"smiles": "C=CC(=O)N1CCC(n2nc(-c3ccc(Oc4ccccc4)cc3)c(C(N)=O)c2N)C1", "note": "(centres unmarked) [Example 25, 1-(1-acryloylpyrrolidin-3-yl)-5-amino-3-(4-phenoxyphenyl)-1H-pyrazole-4-carboxamide]", "values": [{"measurement": "pIC50", "setting": "Ramos cells", "result": "> 7.00"}, {"measurement": "pIC50", "setting": "BTK kinase", "result": "> 7.00"}]}, {"smiles": "C=CC(=O)N1CCC[C@@H](n2nc(-c3ccc(Oc4ccccc4)cc3)c(C(N)=O)c2N)C1", "note": "[Example 18, (R)-1-(1-acryloylpiperidin-3-yl)-5-amino-3-(4-phenoxyphenyl)-1H-pyrazole-4-carboxamide]", "values": [{"measurement": "pIC50", "setting": "Ramos cells", "result": "> 7.00"}]}, {"smiles": "C=CC(=O)N1CC[C@@H](n2nc(-c3ccc(Oc4ccccc4Cl)cc3)c(C(N)=O)c2N)C1", "note": "[Example 45, (R)-1-(1-acryloylpyrrolidin-3-yl)-5-amino-3-(4-(2-chlorophenoxyl)phenyl)-1H-pyrazole-4-carboxamide]", "values": [{"measurement": "pIC50", "setting": "Ramos cells", "result": "> 7.00"}, {"measurement": "pIC50", "setting": "BTK kinase", "result": "> 7.00"}]}, {"smiles": "C=CC(=O)N1CCCC(n2nc(-c3ccc(Oc4ccccc4)cc3)c(C(N)=S)c2N)C1", "note": "(centres unmarked) [Example 37, 1-(1-acryloylpiperidin-3-yl)-5-amino-3-(4-phenoxyphenyl)-1H-pyrazole-4-carbothioamide]", "values": [{"measurement": "pIC50", "setting": "Ramos cells", "result": "> 7.00"}, {"measurement": "pIC50", "setting": "BTK kinase", "result": "> 7.00"}]}, {"smiles": "C=CC(=O)N1CC[C@@H](n2nc(-c3ccc(Oc4ccc(C)c([N+](=O)[O-])c4)cc3)c(C(N)=O)c2N)C1", "note": "[Example 48, (R)-1-(1-acryloylpyrrolidin-3-yl)-5-amino-3-(4-(4-methyl-3-nitrophenoxy)phenyl)-1H-pyrazole-4-carboxamide]", "values": [{"measurement": "pIC50", "setting": "Ramos cells", "result": "> 7.00"}, {"measurement": "pIC50", "setting": "BTK kinase", "result": "> 7.00"}]}, {"smiles": "C=CC(=O)N1CCCC(n2nc(-c3ccc(Oc4ccccc4)cc3)c(C(N)=O)c2NCCN2CCN(C)CC2)C1", "note": "(centres unmarked) [Example 15, 1-(1-acryloylpiperidin-3-yl)-5-(2-(4-methylpiperazin-1-yl)ethylamino)-3-(4-phenoxy-phenyl)-1H-pyrazole-4-carboxamide]", "values": [{"measurement": "pIC50", "setting": "Ramos cells", "result": "> 7.00"}, {"measurement": "pIC50", "setting": "BTK kinase", "result": "> 7.00"}]}, {"smiles": "C=CC(=O)N1CCCC(n2nc(-c3ccc(Oc4ccccc4)cc3)c(C(N)=O)c2NC)C1", "note": "(centres unmarked) [Example 1, 1-(1-acryloylpiperidin-3-yl)-5-(methylamino)-3-(4-phenoxyphenyl)-1H-pyrazole-4-carboxamide]", "values": [{"measurement": "pIC50", "setting": "Ramos cells", "result": "> 7.00"}, {"measurement": "pIC50", "setting": "BTK kinase", "result": "> 7.00"}]}, {"smiles": "CN(C)C/C=C/C(=O)N1CCCC(n2nc(-c3ccc(Oc4ccccc4)cc3)c(C(N)=O)c2N)C1", "note": "(centres unmarked) [Example 29, (E)-5-amino-1-(1-(4-(dimethylamino)but-2-enoyl)piperidin-3-yl)-3-(4-phenoxyphenyl)-1H-pyrazole-4-carboxamide]", "values": [{"measurement": "pIC50", "setting": "Ramos cells", "result": "> 7.00"}, {"measurement": "pIC50", "setting": "BTK kinase", "result": "> 7.00"}]}]}
